Experiment: gradient 5% acetonitrile 3 min, to 50% in 2 min, to 85% in 15 min, held 3 min, 100 µL/min
Details: column: Zorbax Extend-C18 2.1 x 50 mm; eluents: water / acetonitrile, 0.1% formic acid
How it was run: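 Using water and acetonitrile that each contained 0.1% formic acid, mixtures of ~100 pure standards were separated at 100 μL/min on a Zorbax Extend-C18 column (2.1 × 50 mm, 1.8 μm). The HPLC fed a quadrupole time-of-flight mass spectrometer working in positive and negative ionization mode, with dead and dwell volumes of 40 μL and 900 μL. Data were acquired over 3 months. Retention time was read from computationally picked adduct peaks after manual inspection of each.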

Structure (SMILES)	RP-LC retention time [s]
COC(=O)c1ccc2c(=O)n(-c3cc(F)cc(F)c3)c(N3CCCCC3)nc2c1	1180
O=C(Nc1c(C(=O)N2CCN(c3ccccn3)CC2)[nH]c2ccccc12)c1ccc(Cl)cc1	678
Cc1ccc(-n2ncc3c(NCCCN(C)C)ncnc32)cc1Cl	670
Cn1nc(N2CCC(NC(=O)CCn3cccn3)C2)ccc1=O (configuration not stated)	582
COc1ccc(CCC(=O)N2CCn3c(C)nnc3C2)cc1	569
CC(C)Cc1nc(-c2ccccc2)oc1CC(=O)NCc1ccc(F)c(Cl)c1	1080
CC1CN(CC(=O)NCc2ccc3c(c2)OCO3)c2ccccc2S1 (configuration not stated)	967
COCCSc1nc(-c2cccs2)cc(C(F)(F)F)c1C#N	1120
CC(C)CNC(=O)c1ccc(-c2nc3cccnc3n2C2CCCCC2)cc1	926
NS(=O)(=O)c1ccc(CCNCc2ccc(-c3ccccc3F)o2)cc1	643
O=C(Cc1nnc(-c2ccc3ncccc3c2)o1)Nc1ccc(F)cc1Cl	730
Cc1c(Cl)cccc1NC(=O)C(=O)NCC1(c2ccc(F)cc2)CC1	1110
Cc1ccnc(Nc2nc(-c3ccccc3)cs2)c1	790
Brc1cccc(-c2nnc(Cc3nc(-c4ccncc4)no3)o2)c1	854
O=C(NCCOc1ccccc1)Nc1cccs1	755
O=C(NCc1ccc(F)c(Cl)c1)C1CCCN(c2ncnc3c2oc2ccccc23)C1 (configuration not stated)	818
COc1cc(OC)cc(C(=O)N2CCc3cc(-c4csc(C)n4)ccc32)c1	977
Cc1c(Cl)cccc1NC(=O)CCCn1cccc1	868
COc1cc(NC(=O)CCSc2ccccc2)c2ncccc2c1	1060
CCOC(=O)C1CCCN(Cc2nc3nc(C)cc(N4CCC(C)CC4)n3n2)C1 (configuration not stated)	652
COc1ccc(NC(=O)[C@@H]2c3ccccc3C(=O)N3CCCC[C@@H]23)c(OC)c1	752
Cc1nc(CC(=O)Nc2ccc(F)cc2F)cs1	739
CCOc1ccccc1NS(=O)(=O)c1cc(-c2nc(C(C)(C)C)cs2)cs1	1310

Structure (SMILES)	RP-LC retention time [s]
COc1cccc(CNC(=O)c2nc(N3CCOCC3)c3c(C)cc(C)nc3n2)c1	625
CCn1c(CN(C)C(=O)Nc2ccc3c(c2)OCO3)nc2cc(C(=O)N(C)C)ccc21	607
CC1(C)C2CCC(CN=C(N)CSS(=O)(=O)O)C1C2 (configuration not stated)	738
CCOc1ccc(C2=NC3(CCN(C(C)C)CC3)NC(c3cc(Br)ccc3O)C2)cc1 (configuration not stated)	654
CCc1noc(-c2ccc(-n3ncc(C(=O)N4CCN(C)CC4)c3C)nc2)n1	618
CCCS(=O)(=O)c1nc2ccc(NS(=O)(=O)Cc3cc(F)cc(F)c3)cc2s1	938
Cc1nnc(C2CCCCCN2C(=O)c2ccoc2C)o1 (configuration not stated)	699
CN(C)C(=O)c1ccc2c(c1)N(CC(=O)Nc1cccnc1)C(=O)CO2	572
Cc1oc(-c2ccc(C(=O)NCC3COCCO3)cc2)nc1CN1CCc2ccccc21 (configuration not stated)	876
COC(=O)c1c(NCCN2CCCc3ccccc32)c2cc(F)ccc2[nH]c1=O	952
Cc1ccc2c(Nc3ccc(C)c(Cl)c3)c(C(=O)N3CCOCC3)cnc2n1	610
O=C(CCc1c(-c2ccc(Br)cc2)nc2ccccn12)NCCCc1ccccc1	722
COc1ccc(-n2c(=O)c(C(=O)Nc3ccc(OC)c(F)c3)c(O)c3cccnc32)cc1	1200
CCCn1nnc2cc(-c3noc(C4CC(=O)N(c5ccc(C)cc5)C4)n3)ccc21 (configuration not stated)	964
Cc1noc(C2(NC(=O)c3cccc(F)c3)CCCCC2)n1	860
CC1CCCN(C(=O)c2cn(-c3ccc(S(=O)(=O)N4CCCC(C)C4)cn3)cn2)C1 (configuration not stated)	939
CCn1cc(-c2nc(CC(=O)Nc3ccc(Cl)cc3)cs2)c2cccnc21	996
O=S(=O)(Nc1cccc(-c2cn3ccccc3n2)c1)c1ccc(Br)cc1	673
O=C(NC1CC1)C1CCCN(C(=O)c2ccoc2)C1 (configuration not stated)	584
Cc1cc(C)cc(NC(=O)NCc2ccnc(N3CCSCC3)c2)c1	660
CCC(=O)N1CCc2c(C(=O)N3CCN(c4ccccc4OC)CC3)cccc21	786
Cc1nc(C)c2c(n1)N(Cc1cccc(F)c1)C(=O)CC2	666
COc1ccc(S(=O)(=O)NC2CCN(C(=O)C3CCC3)CC2)cc1	750

Structure (SMILES)	RP-LC retention time [s]
Cc1noc(C2(NC(=O)c3ccc(C(C)(C)C)cc3)CCCCC2)n1	1090
COc1cc(OC)c(NC(=O)N2CCc3nc(-c4ccc(F)cc4)ncc3C2)cc1Cl	1020
CCC1CCCCN1CCCNC(=O)C1CCN(c2ccc(N3CCCCC3)nn2)CC1 (configuration not stated)	561
CC(C)OCCCNC(=O)Cn1nc2c(cc1=O)CCCCC2	698
Cc1nnc(NC(=O)c2ccc(OCc3nc(-c4ccco4)cs3)cc2)s1	815
COCCC(=O)N1CCC(c2noc(C3CC3)n2)C1 (configuration not stated)	627
CC(C)CN1CCn2cc(S(=O)(=O)Nc3ccc(Cl)cc3)cc2C1=O	848
Cc1cc(C)n2nc(CN(C(=O)c3ccco3)c3ccc(F)cc3)nc2n1	715
CC(C)C(=O)N1CCc2c(c(C(=O)N3CCC(C(=O)N4CCCCCC4)CC3)nn2C)C1	656
COC(=O)c1cc(OCC(=O)Nc2cccc(OC)c2)c2ccccc2n1	779
Cc1ccc2ncn(C3CCN(S(=O)(=O)c4ccc(C(C)C)cc4)CC3)c(=O)c2c1	1050
Cc1cc(C)c(CNC(=O)c2ccc3c(c2)CC(=O)N3C)c(C)c1	830
CCOC(=O)C1=C(CNC2CCCCC2)NC(=O)NC1c1ccc(C)cc1 (configuration not stated)	662
N#Cc1cccc(NC(=O)Cc2csc3nc(-c4ccccc4)cn23)c1	782
CCn1cnc(S(=O)(=O)N2CCCC(C(=O)Nc3ccc(C)c(Cl)c3)C2)c1 (configuration not stated)	861
Cc1cccc(Nc2nc(C(=O)NCc3ccc(C)o3)nc3ccccc23)c1	856
COCCNC(=O)c1nnn(-c2cccc(Cl)c2)c1-c1ccncc1	690
COc1ccc(-c2ncc3c(n2)CCN(S(=O)(=O)c2ccc(F)c(F)c2)C3)cc1	1060
Cc1cc(F)ccc1N1C(=O)CN(S(C)(=O)=O)CC1(C)C(=O)NCc1ccccc1 (configuration not stated)	804
Cc1ccc(C)c(-c2csc3c(=O)n(CC(=O)OC(C)(C)C)cnc23)c1	1110
COc1ccccc1-c1noc(C2CCCN2C(=O)c2ccc(NC(C)=O)cc2)n1 (configuration not stated)	713
CC(C)S(=O)(=O)Nc1ccc2c(c1)CN(C(=O)c1ccco1)CC2	685
COc1ccc(NC(=O)C2CCCN(c3nc4ccccc4nc3C(F)(F)F)C2)c(OC)c1 (configuration not stated)	1190

Structure (SMILES)	RP-LC retention time [s]
Cc1ccc(S(=O)(=O)NC2CCS(=O)(=O)C2)cc1[N+](=O)[O-] (configuration not stated)	678
CCc1noc(-c2ccnc(-n3ncc(C(=O)N4CCCC4)c3C)c2)n1	840
O=C(Nc1ccc(F)cc1F)c1ccc(N2C(=O)CCC2=O)cc1	671
COc1cc(OC)cc(C(=O)N2CCC3(C2)C(=O)N(C)c2ccccc23)c1 (configuration not stated)	770
COc1ccccc1N1CCN(c2cc(SCC(=O)Nc3ccc(F)cc3)ncn2)CC1	941
Cc1ncoc1C(=O)N1CCC(F)(F)C(COCC2CC2)C1 (configuration not stated)	789
NC(=O)CSc1nnnn1-c1ccccc1	590
COCCN1CCC2(CC1)CN(Cc1cc(OC)cc(OC)c1)Cc1ccccc1O2	560
CCCCN(C(=O)c1ccc(C)cc1)C1(C(=O)NCc2ccccc2)CCN(C(C)=O)CC1	901
COCCCNC(=O)c1ccc2cnn(Cc3ccc(Cl)cc3)c2c1	812
Cc1oc(C(C)C)nc1C(=O)NC(C)c1ccccn1 (configuration not stated)	610
Cc1nc(CCNC(=O)C2CCC2)no1	608
O=C(c1cccs1)N1CC(C(=O)N2CCN(c3ncccn3)CC2)C1	604
O=C(NCCc1ccc(Cl)cc1)C(=O)c1ccc[nH]1	878
O=C(Nc1ccccc1C(F)(F)F)N1CCN(c2nc3c(F)cc(F)cc3s2)CC1	942
Cc1cc(N2CCN(C(=O)Nc3ccccc3Cl)CC2)nc(N2CCOCC2)n1	637
COc1ccc(Cl)cc1NC(=O)N1CCCC(Cn2cnc3cccnc32)C1 (configuration not stated)	761
CC(=O)N(C1CC1)C1CCOC2(CCN(C(=O)c3ccsc3)CC2)C1 (configuration not stated)	673
COc1ccc(S(=O)(=O)N2[C@H]3CC[C@@H]2c2cnc(-c4ccccc4)nc2C3)cc1	1030
COC(=O)c1ccc(C(=O)OC)c(NC(=O)N2CCC(CN3CCCCCC3)CC2)c1	678
Cc1ccc(NS(=O)(=O)c2cc3n(c2)CCCNC3=O)cc1F	669
O=S(=O)(NCCc1csc(-c2cccc(F)c2)n1)c1ccccc1Cl	989
COc1ccc(CN2C(=O)COC[C@H]2C(=O)NC2CC2)c(OC)c1	643
